The values below come from patent US5885993A, “Remedy for pancreatitis” (Nippon Shinyaku Company, Limited, priority 1995, dated 1999).

One data set has as its system Cn+St pancreatitis. The data set can be described thus: Antipancreatitis activity: severity of pancreatitis and wet weight of pancreas in Cn+St pancreatitis (cerulein plus water immersion stress). The conditions noted are these: for Wet weight of pancreas / Severity of pancreatitis: oral gavage 18 and 2 hours before first Cn dosing, mean ± S.E.; for Severity of pancreatitis: score. The class given is in vivo, SD rats (female, 12-week-old). The text has this: The antipancreatitis action of the compound of the invention was confirmed in a test using rats as described hereinafter. The test protocol used is the most popular of all of the test protocols available for the evaluation of therapeutic drugs for pancreatitis in animals. A high correlation has been reported to hold between the antipancreatitis effect found by this test and the clinical effect in man [Yamaguchi et al.: Association of stresses in the onset of pancreatitis, Shoukakika, 18(2), 186-196, 1994). Female 12-week-old SD rats were used in groups of 10 individuals. After 40 μg/kg of cerulein (Cn) was administered intraperitoneally, the animals were placed in stress cages and immersed down to the xiphoid in a constant-temperature bath at 23° C. One hour later, 40 μg/kg of Cn was administered i.p. again and the stress loading was continued. After 5 hours of stress loading, the animals were sacrificed and laparotomized and the severity of pancreatitis was scored in accordance with the evaluation criteria proposed by Yamaguchi et al. (Gastroenterology 98: 1682-1688, 1990). In addition, the pancreas was excised and its wet weight was determined. As the test compounds, compounds 1, 2, 3, and 4 were administered by oral gavage 18 and 2 hours before the first Cn dosing. As a control compound, irsogladine maleate was used. Statistical significance was tested by Wilcoxon rank sum test for the severity and by Dunnett test for the wet weight.

A further data set deals with male mice (BALB/c). The data set is described as follows: Acute toxicity. It counts as in vivo. The conditions noted are these: monitored for 1 week. The protocol: Six-week-old male mice (BALB/c) fasted in advance was orally dosed with 1 g/kg or 500 mg/kg of the test compound and the time course of mortality was monitored for 1 week. The test compound was suspended in 0.5% aqueous methylcellulose solution and administered in the dose of 500 or 1,000 mg/20 ml/kg. […] The toxicity of the compound of the invention is, thus, extremely low.

Data set [1] has as its system cerulein-induced acute pancreatitis. The settings on record: Proceedings of the 36th Congress of The Japanese Society of Gastroenterology, p.266; cited from earlier work.
Data set [2] is described as follows: Effect on body weight gain. The class given is in vivo, SD rats (male, 6-week-old). The conditions noted are these: 1000 mg/kg orally daily for 2 consecutive weeks. The protocol: Compound 1 was administered orally to 6-week-old male SD rats (in groups of 5) daily to investigate its effect on body weight gain.

For `Nc1nc(-c2cc(Cl)ccc2Cl)nc(N2CCOCC2)n1` [Compound 4, 2-Amino-4-(2,5-dichlorophenyl)-6-morpholino-1,3,5-triazine], the “Wet weight of pancreas” value in the data set with Cn+St pancreatitis (10 mg/kg) amounted to 7.33 ± 0.23 g/kg; with Cn+St pancreatitis (30 mg/kg), 6.18 ± 0.53 g/kg; with Cn+St pancreatitis (100 mg/kg), 7.49 ± 0.47 g/kg. Moreover, the Severity of pancreatitis came to 0.9 ± 0.28 in the data set with Cn+St pancreatitis (10 mg/kg), 0.5 ± 0.22 in the data set on Cn+St pancreatitis (30 mg/kg) and 0.5 ± 0.17 in the data set with Cn+St pancreatitis (100 mg/kg). Besides, the mortality result with male mice (BALB/c) (1 g/kg oral) was “no death was encountered”.

In the case of `Nc1nc(N)nc(-c2cc(Cl)ccc2Cl)n1.O=C(O)/C=C\C(=O)O` [irsogladine maleate, 2,4-diamino-6-(2,5-dichlorophenyl)-1,3,5-triazine maleate, reference compound], the figures for the “Wet weight of pancreas” value in the data set with Cn+St pancreatitis (10 mg/kg), with Cn+St pancreatitis (30 mg/kg) and with Cn+St pancreatitis (100 mg/kg) were 10.09 ± 0.51 g/kg, 8.52 ± 0.60 g/kg and 7.14 ± 0.58 g/kg, respectively. In addition, the values for the Severity of pancreatitis in the data set with Cn+St pancreatitis (10 mg/kg), in the data set with Cn+St pancreatitis (30 mg/kg) and with Cn+St pancreatitis (100 mg/kg) were 2.2 ± 0.33, 1.5 ± 0.27 and 0.4 ± 0.22, respectively. Besides, the minimal effective dose with Cn+St pancreatitis (Rattus norvegicus, only at this dose (10, 30, 100 mg/kg tested), oral, read-out: dose showing a significant reducing effect on the severity of pancreatitis) came out at 100 mg/kg. The “effect on wet weight (swelling) of pancreas relative to comparator, in words” value in the data set on Cn+St pancreatitis (compound of the invention versus control compound irsogladine maleate) was “almost equivalent to the compound of the invention in the effect on wet weight of pancreas”. In addition, the “inhibitory activity in Cn+St pancreatitis (in words)” value in the data set with Cn+St pancreatitis (rat model, cerulein plus water immersion stress loading) is given as “only moderate activity”. Besides, the “efficacy in Cn-induced acute pancreatitis (in words)” value in data set [1] was “proved efficacious”.

`Cl.Nc1nc(-c2cc(Cl)ccc2Cl)nc(N2CCC[C@H]2CO)n1` [Compound 2, (S)-2-amino-4-(2,5-dichlorophenyl)-6-(2-hydroxymethyl-1-pyrrolidinyl)-1,3,5-triazine hydrochloride]: the “Wet weight of pancreas” value in the data set with Cn+St pancreatitis (1 mg/kg) was 6.86 ± 0.41 g/kg; with Cn+St pancreatitis (3 mg/kg) it was 6.83 ± 0.48 g/kg; in the data set on Cn+St pancreatitis (10 mg/kg), 7.31 ± 0.64 g/kg; in the data set with Cn+St pancreatitis (30 mg/kg), 4.35 ± 0.32 g/kg. Further, the Severity of pancreatitis in the data set with Cn+St pancreatitis (1 mg/kg) is given as 1.3 ± 0.30; in the data set with Cn+St pancreatitis (3 mg/kg), 0.8 ± 0.29; in the data set with Cn+St pancreatitis (10 mg/kg) it was 0.4 ± 0.16; in the data set on Cn+St pancreatitis (30 mg/kg), 0.1 ± 0.03. The mortality entry in the data set on male mice (BALB/c) (500 mg/kg oral) is given as “no death was encountered”.

For the molecule `Nc1nc(-c2cc(Cl)ccc2Cl)nc(N(CCO)CCO)n1` [Compound 1, 2-Amino-4-[N,N-bis(2-hydroxyethyl)amino]-6-(2,5-dichlorophenyl)-1,3,5-triazine], the entries for the “Wet weight of pancreas” value with Cn+St pancreatitis (10 mg/kg), in the data set on Cn+St pancreatitis (30 mg/kg) and in the data set with Cn+St pancreatitis (100 mg/kg) were 9.33 ± 0.66 g/kg, 7.13 ± 0.57 g/kg and 5.65 ± 0.40 g/kg, respectively. Also, the Severity of pancreatitis is 1.4 ± 0.22 with Cn+St pancreatitis (10 mg/kg), 0.6 ± 0.22 with Cn+St pancreatitis (30 mg/kg) and 0.3 ± 0.21 in the data set with Cn+St pancreatitis (100 mg/kg). Moreover, in the data set with male mice (BALB/c) (1 g/kg oral), the mortality entry is on record as “no death was encountered”. For the same molecule, in data set [2], the “effect on body weight gain” value is recorded as “did not affect the body weight gain of rats”.

In the case of `Nc1nc(-c2cc(Cl)ccc2Cl)nc(N2C[C@H](O)C[C@H]2CO)n1` [Compound 3, 2-Amino-4-(2,5-dichlorophenyl)-6-[(2S,4R)-2-hydroxymethyl-4-hydroxy-1-pyrrolidinyl]-1,3,5-triazine], the “Wet weight of pancreas” value was found to be 7.58 ± 0.36 g/kg in the data set with Cn+St pancreatitis (3 mg/kg), 6.67 ± 0.37 g/kg in the data set with Cn+St pancreatitis (10 mg/kg) and 5.96 ± 0.70 g/kg in the data set on Cn+St pancreatitis (30 mg/kg). Further, the values for the Severity of pancreatitis with Cn+St pancreatitis (3 mg/kg), in the data set on Cn+St pancreatitis (10 mg/kg) and in the data set with Cn+St pancreatitis (30 mg/kg) were 1.4 ± 0.10, 0.7 ± 0.08 and 0.6 ± 0.08, respectively. In addition, the mortality result in the data set on male mice (BALB/c) (1 g/kg oral) is recorded as “no death was encountered”.
